What was measured:
[1] = molecular target: T1, prostaglandin cyclooxygenase (sheep seminal vesicle microsomes) (Ovis aries, UniProt P05979); assay: in-vitro effect on prostaglandin cyclooxygenase (conversion of 14C-arachidonic acid to PGE2); format: biochemical; conditions: read-out: IC50 for inhibition of cyclooxygenase
T1 construct: Lyophilized sheep seminal vesicle microsomes are utilized as the prostaglandin-synthesizing enzyme preparation; from tissue; host or cells: sheep seminal vesicle microsomes, lyophilized
T1 sequence (P05979 25-600): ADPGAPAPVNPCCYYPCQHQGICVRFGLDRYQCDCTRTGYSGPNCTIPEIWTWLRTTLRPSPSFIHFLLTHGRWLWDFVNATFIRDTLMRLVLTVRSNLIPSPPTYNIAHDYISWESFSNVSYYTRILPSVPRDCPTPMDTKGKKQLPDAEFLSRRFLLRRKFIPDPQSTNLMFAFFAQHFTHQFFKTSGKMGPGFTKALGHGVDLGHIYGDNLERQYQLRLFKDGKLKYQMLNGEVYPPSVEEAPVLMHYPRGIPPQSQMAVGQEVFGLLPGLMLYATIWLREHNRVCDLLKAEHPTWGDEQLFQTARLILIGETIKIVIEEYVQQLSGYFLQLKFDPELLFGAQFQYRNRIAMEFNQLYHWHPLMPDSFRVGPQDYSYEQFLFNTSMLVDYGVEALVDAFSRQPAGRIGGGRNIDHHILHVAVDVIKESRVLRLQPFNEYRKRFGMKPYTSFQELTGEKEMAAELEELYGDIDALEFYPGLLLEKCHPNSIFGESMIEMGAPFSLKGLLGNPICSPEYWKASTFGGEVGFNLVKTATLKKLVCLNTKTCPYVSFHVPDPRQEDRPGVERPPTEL
Procedure: The in-vitro effect on prostaglandin cyclooxygenase is measured by a modification of the method of Takeguchi et al described in Biochemistry 10, 2372 (1971); the testing procedure is as follows: Lyophilized sheep seminal vesicle microsomes are utilized as the prostaglandin-synthesizing enzyme preparation. The conversion of ^14 C-arachidonic acid to PGE2 is measured. Test compounds (dissolved in buffer, or if necessary, in small amount of ethanol) are added to the incubation mixture. The prostaglandins are extracted and separated by thin-layer chromatography; the plates are scanned, the radioactive zones corresponding to PGE2 are transferred to liquid scintillation vials and counted for radioactivity. IC50 values for inhibition are determined graphically as the concentration of test compound causing a 50% reduction in the amount of PGE2 synthesized.

[2] = molecular target: T2, thromboxane synthetase from lysed human platelets (Homo sapiens, UniProt P24557); assay: in vitro inhibition of the thromboxane synthetase enzyme (TxB2/PGF2α+β ratio from 14C-arachidonic acid); format: biochemical; conditions: human platelet microsomal enzyme, 30 minutes incubation
T2 construct: crude microsomal preparation of thromboxane synthetase from lysed human platelets; from tissue; host or cells: human platelets, lysed; crude microsomal preparation
T2 sequence (P24557 1-533): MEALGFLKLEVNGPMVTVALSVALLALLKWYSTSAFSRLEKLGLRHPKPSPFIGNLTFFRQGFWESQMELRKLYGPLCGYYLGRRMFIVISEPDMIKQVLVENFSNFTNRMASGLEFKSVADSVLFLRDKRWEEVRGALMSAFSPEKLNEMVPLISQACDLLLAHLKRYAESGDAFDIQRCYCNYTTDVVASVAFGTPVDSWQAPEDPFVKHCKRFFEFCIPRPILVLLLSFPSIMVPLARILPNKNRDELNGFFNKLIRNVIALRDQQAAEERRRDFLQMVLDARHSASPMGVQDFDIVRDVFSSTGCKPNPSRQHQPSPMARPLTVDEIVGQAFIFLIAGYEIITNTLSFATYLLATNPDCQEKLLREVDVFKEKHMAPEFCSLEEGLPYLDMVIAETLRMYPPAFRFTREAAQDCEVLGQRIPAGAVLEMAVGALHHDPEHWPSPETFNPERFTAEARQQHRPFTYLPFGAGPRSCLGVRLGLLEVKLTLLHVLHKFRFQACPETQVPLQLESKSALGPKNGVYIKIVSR
Procedure: Res. Comm. 74, 1432 (1977); the testing procedure is as follows:
The test compound (dissolved in buffer, or if necessary, in a small amount of ethanol) is added to the incubation medium. […] The radioactive products and excess substrate are extracted into ethyl acetate; the extract is evaporated to dryness; the residue is dissolved in acetone, spotted on thin-layer plates and chromatographed in the solvent system toluene: acetone: glacial acetic acid (100 volumes: 100 volumes: 3 volumes).

[3] = test system: arachidonic acid induced pulmonary obstruction; assay: protection against sudden death due to arachidonic acid induced pulmonary obstruction; format: in vivo; conditions: mice, orally, 100 mg/kg
[4] = test system: plasma thromboxane B2 and 6-keto-PGF1α; assay: reduction of plasma levels of thromboxane in vivo after arachidonic acid challenge; conditions: guinea pig
Procedure: The reduction of plasma levels of thromboxane is determined in vivo on administration of the test compound to guinea pigs in the following manner:
Guinea pigs are dosed with vehicle or test drug and injected intraperitoneally with arachidonic acid (40 mg/kg) 2 hours later. Blood is collected for analysis 1 hour after the arachidonic acid challenge. A single aliquot of each plasma sample is assayed for thromboxane B2 and another aliquot for 6-keto-PGF1 α, the stable metabolites of thromboxane A2 and prostacyclin (PGI2) respectively.

[5] = molecular target: T3, prostacyclin (PGI2) synthetase (microsomal fraction of bovine aorta) (Bos taurus, UniProt Q29626); assay: in-vitro effect on prostacyclin (PGI2) synthetase (6-keto-PGF1α/PGE2 ratio); format: biochemical; conditions: read-out: IC50 for inhibition of prostacyclin synthetase
T3 construct: crude PGI2 synthetase in the form of a microsomal fraction of bovine aorta; from tissue; host or cells: bovine aorta, microsomal fraction
T3 sequence (Q29626 1-500): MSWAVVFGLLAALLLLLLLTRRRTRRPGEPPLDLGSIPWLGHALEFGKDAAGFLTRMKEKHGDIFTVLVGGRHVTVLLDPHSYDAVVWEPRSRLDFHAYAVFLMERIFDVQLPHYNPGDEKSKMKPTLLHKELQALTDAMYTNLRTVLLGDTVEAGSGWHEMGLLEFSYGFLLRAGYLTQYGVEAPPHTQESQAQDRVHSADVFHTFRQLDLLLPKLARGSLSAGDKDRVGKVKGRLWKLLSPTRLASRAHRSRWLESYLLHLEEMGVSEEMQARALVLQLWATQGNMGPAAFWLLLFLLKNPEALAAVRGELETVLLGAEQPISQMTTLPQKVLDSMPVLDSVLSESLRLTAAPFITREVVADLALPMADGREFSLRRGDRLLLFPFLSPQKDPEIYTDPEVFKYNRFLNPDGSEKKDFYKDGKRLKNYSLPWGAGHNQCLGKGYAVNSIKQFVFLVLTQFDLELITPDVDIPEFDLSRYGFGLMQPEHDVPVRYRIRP
Procedure: The in-vitro effect on prostacyclin (PGI2) synthetase is measured analogous to the method of Sun et al., Prostaglandins 14, 1055 (1977);
The testing procedure is as follows:
^14 C-Arachidonic acid is incubated with an enzyme mixture consisting of solubilized and partially purified prostaglandin cyclo-oxygenase from sheep seminal vesicles and crude PGI2 synthetase in the form of a microsomal fraction of bovine aorta.
Test compound (dissolved in buffer, or if necessary, in a small amount of ethanol) is placed in the incubation medium. The reaction mixture is incubated in 100 mM Tris HCl (pH 7.5) for 30 minutes at 37° C., acidified to pH 3 and extracted into ethyl acetate. The extract is evaporated to dryness; the residue is dissolved in acetone, spotted on thin-layer plates and chromatographed in a solvent system described by Sun et al. The radioactive zones are located with a scanner; those corresponding to 6-keto-PGF1 α (a stable end product of prostacyclin biotrasformation) and PGE2 are transferred to liquid scintillation vials and counted. The ratio of counts for 6-keto-PGF1 α/PGE2 is calculated for each concentration of test compound used. IC50 values for inhibition are determined graphically as the concentration of test compound at which the ratio of 6-keto-PGF1 α/PGE2 is reduced to 50% of the control value.

[6] = test system: bleeding time; assay: prolongation of bleeding time in the rat; format: in vivo; conditions: rats, dose of about 1 mg/kg i.p. or lower
Source text: For example, in thromboembolism, specific inhibition of the enzyme thromboxane synthetase reduces arachidonic acid induced platelet aggregation involved in clot formation. Experimentally, prolongation of bleeding time in the rat is indicative of a beneficial antithrombotic effect.

## O=C(O)CCCCCc1cccc2cncn12 [Example 2, 5-(5-carboxypentyl)-imidazo[1,5-a]pyridine]
[1]
  IC50: > 100 µM
[2]
  IC50: ~0.003 µM
[3]
  protection against sudden death: protects against sudden death
[4]; oral dose 0.25 mg/kg or higher doses
  decrease with respect to prostacyclin (plasma 6-keto-PGF1α): no significant decrease
[4]; oral dose as low as 0.25 mg/kg
  reduction of plasma levels of thromboxane B2: over 50%
[5]
  IC50: > 100 µM
[6]
  bleeding time: prolongs bleeding time

Source: patent publication US4444775A, “Substituted imidazo[1,5-A]pyridines” (Ciba-Geigy Corporation, priority 1982, dated 1984)
